Results on 37 compounds are retold here after patent US8673929B2, “4,6-di- and 2,4,6-trisubstituted quinazoline derivatives and pharmaceutical compositions useful for treating viral infections” (priority 2006, dated 2014).

One data set concerns HCV replicon. The data set can be described thus: Anti-HCV replicon assay, EC50 (luciferase readout). Particulars: Hepatitis C virus, 72 h; Huh-7 HCV replicon cells, 3 days incubation, luciferase luminescence. Format: cell-based. In a few lines:
(§1)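 Huh-7 cells harbouring an HCV replicon (6000/well) incubated 3 days at 37° C with 3-fold serially diluted compound (0.5% DMSO final where used). EC50 from luciferase luminescence of lysed cells; CC50 from CellTiter-Glo luminescence in parallel plates.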

Data set [1] can be described thus: CC50 assay in the anti-HCV replicon assay (CellTiter-Glo). The conditions noted are these: human, Huh-7 hepatoma cells harbouring an HCV replicon; Huh-7 HCV replicon cells, 3 days incubation, CellTiter-Glo luminescence. Format: cell-based, human. In short, it runs like this:
as §1

Structures are written as SMILES.

Take `CC(C)Oc1nc(N)nc2ccc(-c3cccc(F)c3F)cc12` [Example 75]: the EC50 with HCV replicon is 0.3 to 1 µM. Further, the CC50 at 3 days in data set [1] was over 20 µM.
With `Nc1nc(OCC2CCC2)c2cc(-c3ccc(F)cc3F)ccc2n1` [Example 102, 4-Cyclobutylmethoxy-6-(2,4-difluoro-phenyl)-quinazolin-2-ylamine], the EC50 with HCV replicon lay in the range of 1 to 10 µM. Besides, the CC50 at 3 days in data set [1] was under 10 µM.
In the data set on HCV replicon, `CC(C)Oc1nc(N)nc2ccc(-c3ccc(C#N)cc3)cc12` [Example 99, 4-(2-Amino-4-isopropoxy-quinazolin-6-yl)-benzonitrile] came in with an EC50 of 0.3 to 1 µM. In data set [1], the CC50 at 3 days is over 20 µM.
For `CCOc1nc(N)nc2ccc(-c3ccc(C(=O)NC4CCCC4)cc3)cc12` [Example 154, 4-(2-Amino-4-ethoxy-quinazolin-6-yl)-N-cyclopentyl-benzamide], in that order: 0.3 to 1 µM and 10 to 20 µM.
Taken in the same sequence, the figures for `CNC(=O)c1ccc(-c2ccc3nc(N)nc(OCCF)c3c2)cc1Cl` [Example 207, 4-[2-Amino-4-(2-fluoro-ethoxy)-quinazolin-6-yl]-2-chloro-N-methyl-benzamide] were 1 to 10 µM and over 20 µM.
For `COCCOc1nc(N)nc2ccc(-c3ccc(Cl)s3)cc12` [Example 54, 6-(5-Chloro-thiophen-2-yl)-4-(2-methoxy-ethoxy)-quinazolin-2-ylamine], in that order: 1 to 10 µM and over 20 µM.
`COCCOc1nc(N)nc2ccc(-c3ccc(F)c(F)c3F)cc12` [Example 66, 4-(2-Methoxy-ethoxy)-6-(2,3,4-trifluoro-phenyl)-quinazolin-2-ylamine] registered an EC50 with HCV replicon of 1 to 10 µM. Also, in data set [1], the CC50 at 3 days is over 20 µM.
For `CCOc1nc(N)nc2ccc(-c3ccc(C(=O)N4CCSCC4)cc3)cc12` [Example 162, [4-(2-Amino-4-ethoxy-quinazolin-6-yl)-phenyl]-thiomorpholin-4-yl-methanone], in that order: 1 to 10 µM and over 20 µM.
For `COCCOc1nc(N)nc2ccc(-c3ccc(F)c(F)c3)cc12` [Example 62, 6-(3,4-Difluoro-phenyl)-4-(2-methoxy-ethoxy)-quinazolin-2-ylamine], in that order: 1 to 10 µM and 10 to 20 µM.
For `CC(C)Oc1nc(N)nc2ccc(-c3ccc(OC(F)(F)F)cc3)cc12` [Example 95, 4-Isopropoxy-6-(4-trifluoromethoxy-phenyl)-quinazolin-2-ylamine], in that order: 1 to 10 µM and over 20 µM.
Compound `CC(C)Oc1nc(N)nc2ccc(-c3ccc(C(=O)Nc4ccc(F)cc4)cc3)cc12` [Example 179, 4-(2-Amino-4-isopropoxy-quinazolin-6-yl)-N-(4-fluoro-phenyl)-benzamide] came in with an EC50 with HCV replicon of 0.3 to 1 µM. The same compound displayed a CC50 at 3 days in data set [1] of under 10 µM.
Taken in the same sequence, the figures for `Nc1nc(OCCN2CCOCC2)c2cc(-c3cccc(C(F)(F)F)c3)ccc2n1` [Example 242, 4-(2-Morpholin-4-yl-ethoxy)-6-(3-trifluoromethyl-phenyl)-quinazolin-2-ylamine] were 1 to 10 µM and 10 to 20 µM.
Regarding `CCOc1nc(N)nc2ccc(-c3ccc(C(=O)NC)c(Cl)c3)cc12` [Example 164, 4-(2-Amino-4-ethoxy-quinazolin-6-yl)-2-chloro-N-methyl-benzamide], in the data set on HCV replicon, the EC50 was 1 to 10 µM. The compound also had a CC50 at 3 days in data set [1] of over 20 µM.
Compound `CCOc1nc(N)nc2ccc(-c3ccc(C(=O)NOC)cc3)cc12` [Example 156, 4-(2-Amino-4-ethoxy-quinazolin-6-yl)-N-methoxy-benzamide] displayed an EC50 with HCV replicon of 0.3 to 1 µM. Besides, the CC50 at 3 days in data set [1] is over 20 µM.
For `CCOc1nc(N)nc2ccc(-c3ccc(C(=O)N(C)C)cc3)cc12` [Example 125, 4-(2-Amino-4-ethoxy-quinazolin-6-yl)-N,N-dimethyl-benzamide], in that order: 0.3 to 1 µM and over 20 µM.
As to `CNC(=O)c1ccc(-c2ccc3nc(N)nc(OCc4ccccc4)c3c2)cc1` [Example 71, 4-(2-Amino-4-benzyloxy-quinazolin-6-yl)-N-methyl-benzamide], the EC50 in the data set with HCV replicon was 0.3 to 1 µM. Besides, the CC50 at 3 days in data set [1] is over 20 µM.
Taken in the same sequence, the figures for `CC(C)Oc1nc(N)nc2ccc(-c3ccc(Cl)cc3)cc12` [Example 78, 4-Isopropoxy-6-(4-chloro-phenyl)-quinazolin-2-ylamine] were 1 to 10 µM and over 20 µM.
Taken in the same sequence, the figures for `Nc1nc(OCCF)c2cc(-c3ccc(C(=O)N4CCCCC4)cc3)ccc2n1` [Example 196, {4-[2-Amino-4-(2-fluoro-ethoxy)-quinazolin-6-yl]-phenyl}-piperidin-1-yl-methanone] were 1 to 10 µM and over 20 µM.
Taken in the same sequence, the figures for `Nc1nc(OCCO)c2cc(-c3ccc(C(=O)N4CCSC4)cc3)ccc2n1` [Example 192, {4-[2-Amino-4-(2-hydroxy-ethoxy)-quinazolin-6-yl]-phenyl}-thiazolidin-3-yl-methanone] were 1 to 10 µM and over 20 µM.
Take `CC(=O)Nc1ccc(-c2ccc3nc(N)nc(OCC4CC4)c3c2)cc1` [Example 31, 2-amino-6-(4-acetamidophenyl)-4-(cyclopropyl-methoxy)-quinazoline]: in the data set with HCV replicon, the EC50 was 0.3 to 1 µM. Moreover, in data set [1], the CC50 at 3 days was over 20 µM.
`CCOc1nc(N)nc2ccc(-c3ccc(C(=O)N4CCSC4)cc3)cc12` [Example 158, [4-(2-Amino-4-ethoxy-quinazolin-6-yl)-phenyl]-thiazolidin-3-yl-methanone]: the EC50 with HCV replicon was in the range of 1 to 10 µM. The compound also returned a CC50 at 3 days in data set [1] of over 20 µM.
In the data set with HCV replicon, `CCOc1nc(N)nc2ccc(-c3cccc(C#N)c3)cc12` [Example 47, 3-(2-Amino-4-ethoxy-quinazolin-6-yl)-benzonitrile] returned an EC50 of 1 to 10 µM. The same compound displayed a CC50 at 3 days in data set [1] of over 20 µM.
Taken in the same sequence, the figures for `Nc1nc(OCC2CCC2)c2cc(-c3ccc(F)c(Cl)c3)ccc2n1` [Example 112, 4-Cyclobutylmethoxy-6-(3-chloro-4-fluoro-phenyl)-quinazolin-2-ylamine] were 1 to 10 µM and over 20 µM.
For `Nc1nc(OCC2CCC2)c2cc(-c3ccc(F)cc3)ccc2n1` [Example 103, 4-Cyclobutylmethoxy-6-(4-fluoro-phenyl)-quinazolin-2-ylamine], in that order: 1 to 10 µM and 10 to 20 µM.
As for `CCOc1nc(N)nc2ccc(-c3ccn[nH]3)cc12` [Example 41, 4-Ethoxy-6-(2H-pyrazol-3-yl)-quinazolin-2-ylamine], the EC50 with HCV replicon lay within 1 to 10 µM. For the same compound, in data set [1], the CC50 at 3 days is over 20 µM.
`Nc1nc(O[C@@H]2CCOC2)c2cc(-c3ccc(C(=O)NCCCN4CCCC4)cc3)ccc2n1` [Example 220, (R)-4-[2-Amino-4-(tetrahydro-furan-3-yloxy)-quinazolin-6-yl]-N-(3-pyrrolidin-1-yl-propyl)-benzamide] had an EC50 with HCV replicon of under 0.3 µM. The CC50 at 3 days in data set [1] is under 10 µM.
In the data set with HCV replicon, `CC(C)Oc1nc(N)nc2ccc(-c3ccoc3)cc12` [Example 84, 6-Furan-3-yl-4-isopropoxy-quinazolin-2-ylamine] had an EC50 of 0.3 to 1 µM. For the same compound, the CC50 at 3 days in data set [1] was 10 to 20 µM.
Taken in the same sequence, the figures for `N#CC1(NC(=O)c2ccc(-c3ccc4nc(N)nc(O[C@@H]5CCOC5)c4c3)cc2)CC1` [Example 224, (R)-4-[2-Amino-4-(tetrahydro-furan-3-yloxy)-quinazolin-6-yl]-N-(1-cyano-cyclopropyl)-benzamide] were under 0.3 µM and over 20 µM.
In the data set with HCV replicon, `COCCOc1nc(N)nc2ccc(-c3cc4ccccc4o3)cc12` [Example 57, 6-Benzofuran-2-yl-4-(2-methoxy-ethoxy)-quinazolin-2-ylamine] gave an EC50 of 1 to 10 µM. This compound also displayed a CC50 at 3 days in data set [1] of 10 to 20 µM.
In turn, `CC(=O)Nc1ccc(-c2ccc3nc(N)nc(OCC(F)(F)F)c3c2)cc1` [Example 32, 2-amino-6-(4-acetamidophenyl)-4-(2,2,2-trifluoroethoxy)-quinazoline] came in with an EC50 with HCV replicon of 0.3 to 1 µM. The CC50 at 3 days in data set [1] is over 20 µM.
For `Nc1nc(OCCN2CCOCC2)c2cc(-c3ccccc3C(F)(F)F)ccc2n1` [Example 241, 4-(2-Morpholin-4-yl-ethoxy)-6-(2-trifluoromethyl-phenyl)-quinazolin-2-ylamine], in that order: 1 to 10 µM and over 20 µM.
Regarding `Nc1nc(O[C@@H]2CCOC2)c2cc(-c3ccc(C(=O)NCCN4CCOCC4)cc3)ccc2n1` [Example 217, (R)-4-[2-Amino-4-(tetrahydro-furan-3-yloxy)-quinazolin-6-yl]-N-(2-morpholin-4-yl-ethyl)-benzamide], the EC50 with HCV replicon was under 0.3 µM. In data set [1], this compound returned a CC50 at 3 days of over 20 µM.
`Nc1nc(OCC2CCC2)c2cc(-c3cccc(F)c3F)ccc2n1` [Example 104, 4-Cyclobutylmethoxy-6-(2,3-difluoro-phenyl)-quinazolin-2-ylamine] yielded an EC50 in the data set on HCV replicon of 1 to 10 µM. Further, the CC50 at 3 days in data set [1] is over 20 µM.
For `CN(C)CCCOc1nc(N)nc2ccc(-c3cccc(C(F)(F)F)c3)cc12` [Example 233, 4-(3-Dimethylamino-propoxy)-6-(3-trifluoromethyl-phenyl)-quinazolin-2-ylamine], in that order: 1 to 10 µM and over 20 µM.
In the data set with HCV replicon, `Nc1nc(OCCN2CCOCC2)c2cc(-c3ccoc3)ccc2n1` [Example 239, 6-Furan-3-yl-4-(2-morpholin-4-yl-ethoxy)-quinazolin-2-ylamine] registered an EC50 of 1 to 10 µM. Moreover, the CC50 at 3 days in data set [1] was 10 to 20 µM.
Taken in the same sequence, the figures for `COCCOc1nc(N)nc2ccc(-c3ccsc3)cc12` [Example 61, 4-(2-Methoxy-ethoxy)-6-thiophen-3-yl-quinazolin-2-ylamine] were 1 to 10 µM and over 20 µM.
In the data set with HCV replicon, `CN(C)CCCOc1nc(N)nc2ccc(-c3cc4ccccc4o3)cc12` [Example 227, 6-benzofuran-2-yl-4-(3-dimethylaminopropoxy)-quinazolin-2-ylamine] had an EC50 of 1 to 10 µM. In addition, the CC50 at 3 days in data set [1] is over 20 µM.
